Laboratory results published in patent publication US6448262B1, “Pesticidal and parasiticidal use of 2-(substituted thio) thiazolo-[4,5-b]pyridine compounds” (American Cyanamid Company, priority 1998, dated 2002).
Like-named read-outs stand apart in the source and are kept apart here.

Legend:
Type in all cases: in vivo
C. elegans = experiment: Evaluation of test compounds against C. elegans; set-up: key: 9: complete kill in 4 hours; 8: complete kill in 24 hours; 7: markedly reduced motility in approximately 95% of worms in 24 hours; 0: normal motility, same as controls; settings: 300 ppm; observed at 4 and 24 hours post-immersion
Description: Evaluation of Test Compounds Against C. elegans Cultures of C. elegans (Bristol strain from J. Lewis) are maintained on E. coli lawns on NG Agar Plates at […]. New cultures are established weekly. Nematodes for testing are washed from cultures using Na buffer. Compounds are dissolved in 80% acetone. The test material is micropipetted (25 μl) into a single well of a 96-well sterile tissue culture plate and the solvent allowed to evaporate. A freshly prepared volume (50 μl) of C. elegans in Na buffer is micropipetted into each treated well and several control wells per plate. Plates are incubated at 20° C. Observations for efficacy are made under a dissecting microscope at 4 and 24 hours post-immersion. Immediately prior to reading the plate, it is gently tapped to stimulate the movement of the worms. Activity is judged subjectively, but semi-quantitatively, based on the drug effects on motility of the adults and larvae.

[1] = test system: Aphis gossypii, cotton aphid; experiment: Cotton aphid (CA) cotyledon dip test; settings: 300 ppm; mortality counts after 5 days
From the text: (§1) Subsequent dilutions are made with water as needed.
Aphis gossypii, Cotton Aphid (CA)
Cotton plants at the cotyledon stage are selected and cut back to one plant per pot. A heavily infested leaf is taken from the main colony and placed on top of each cotyledon. The aphids are allowed to transfer to the host plant overnight. At the time of test treatment, the leaf used to transfer the aphids is removed and discarded. The cotyledons are dipped in the test solution and allowed to dry. After 5 days, mortality counts are made.

[2] = test system: Spodoptera eridania, 2nd instar larvae, southern armyworm; experiment: Southern armyworm (SAW) 2nd instar larvae leaf dip test; settings: 300 ppm; observations at 5 days
From the text: as §1
Spodoptera eridania, 2nd Instar Larvae, Southern Armyworm (SAW)
A Sieva lima bean leaf expanded to 7-8 cm in length is dipped in the test solution with agitation for 3 seconds and allowed to dry in a hood. The leaf is then placed in a 100×10 mm petri dish containing a damp filter paper on the bottom and ten 2nd instar caterpillars. At 5 days, observations are made of mortality, reduced feeding, or any interference with normal molting.

[3] = test system: Spodoptera eridania, eggs-southern armyworm; experiment: Southern armyworm eggs (SAW-Eggs) treated diet test; settings: 3000 ppm; mortality counts after 7 days
Description: as §1
(§2) Spodoptera eridania, Eggs-southern Armyworm and Diabrotica undecimpunctata howardi, Eggs-southern Corn Rootworm (SAW-Eggs) and (SCR-Eggs)
(§3) Wells containing artificial diet are treated with the test solutions and dried. The appropriate insect eggs are then placed in the wells. The wells are covered with vented, adhesive, clear plastic covers. After 7 days, mortality counts are made.

[4] = test system: Diabrotica undecimpunctata howardi, eggs-southern corn rootworm; experiment: Southern corn rootworm eggs (SCR-Eggs) treated diet test; settings: 1000 ppm; mortality counts after 7 days
Description: as §1, §2, §3

[5] = test system: Tetranychus urticae (OP-resistant strain), 2-spotted spider mite; experiment: 2-spotted spider mite (TSM) plant dip test; settings: 300 ppm; mortality counts after 2 days
Description: as §1
Tetranychus urticae (OP-resistant Strain), 2-spotted Spider Mite (TSM)
Sieva lima bean plants with primary leaves expanded to 7-8 cm are selected and cut back to one plant per pot. A small piece is cut from an infested leaf taken from the main colony and placed on each leaf of the test plants. This is done about 2 hours before treatment to allow the mites to move over to the test plant to lay eggs. The size of the cut, infested leaf is varied to obtain about 100 mites per leaf. At the time of test treatment, the piece of leaf used to transfer the mites is removed and discarded. The newly-infested plants are dipped in the test solution for 3 seconds with agitation and set in the hood to dry. After 2 days, one leaf is removed and mortality counts are made.

[6] = test system: Diabrotica virgifera virgifera Leconte, 2nd instar western corn rootworm; experiment: Western corn rootworm (WCR) soil jar test; settings: 50 ppm; mortality counts after 5 days
Description: as §1
Diabrotica virgifera virgifera Leconte, 2nd Instar Western Corn Rootworm (WCR)
One cc of fine talc is placed in a 30 mL wide-mouth screw-top glass jar. One mL of the appropriate acetone test solution is pipetted onto the talc so as to provide 1.25 mg of active ingredient per jar. The jars are set under a gentle air flow until the acetone is evaporated. The dried talc is loosened, 1 cc of millet seed is added to serve as food for the insects and 25 mL of moist soil is added to each jar. The jar is capped and the contents thoroughly mixed mechanically. Following this, ten 2nd instar rootworms are added to each jar and the jars are loosely capped to allow air exchange for the larvae. The treatments are held for 5 days when mortality counts are made. Missing larvae are presumed dead, since they decompose rapidly and cannot be found. The concentrations of active ingredient used in this test correspond approximately to 50 kg/ha.

[7] = test system: Lucilia serricata first instar blowfly larvae; experiment: Ectoparasiticide evaluation in Lucilia serricata; settings: rate 100 ppm; for mortality at 100 ppm: Lucilia
Description: Ectoparasiticide Evaluation of Test Compounds in Lucilia serricata
The test compound is dissolved in acetone to a concentration of 100 ppm. 200 μL is added to three 12 mm filter paper disks in 128 well assay trays and allowed to dry. Approximately 20 first instar blowfly larvae and 200 μL bovine serum are added to the disks. Wells are covered with plastic lids and incubated at about 27° C. Mortality is determined at 24 and 48 hours.

[8] = test system: Root-knot nematode, Meloidogyne incognita; settings: potted tomato, scored 4 weeks after inoculation
From the text: Soil Nematicide Assay Targeting Root-knot Nematode, Meloidogyne incognita on Potted Tomato
The test compound is solubilized in acetone and diluted with water to the required test concentration. Silty loam soil in a 3 inch pot with a 3-week-old tomato transplant is drenched with the test solution. Four thousand root-knot nematode Meloidogyne incognita J2 larvae are dispensed in a aqueous suspension onto the soil. The pots are kept in the greenhouse and 4 weeks following inoculation of the pots, plant roots are washed free of soil and scored for the degree of root galling using the root-knot galling index identified below.

[9] = 24 hr, read-out: Percent Mortality 24 hr
[10] = 48 hr, read-out: Percent Mortality 48 hr

SMILES | C. elegans activity rating (motility of adults and larvae) (C. elegans) | CA rating [1] | SAW rating [2] | SAW Eggs rating [3] | SCR Eggs rating [4] | TSM rating [5] | WCR rating [6] | Percent Mortality 24 hr ([7]; 24 hr) | Percent Mortality 48 hr ([7]; 48 hr) | mortality at 100 ppm [7, 9] | mortality at 100 ppm [7, 10] | Galling Index ([8]; rate 10 ppm soil drench) | Galling Index ([8]; rate 25 ppm soil drench) | Galling Index ([8]; rate 50 ppm soil drench)
C=CCSc1nc2ncccc2s1 [Example 2] | 0 | 0 | 0 | 0 | 0 | 0 | 1 | 0% | 0% |  |  |  |  | 
CCOC(=O)CSc1nc2ncccc2s1 [Example 5] | 9 | 0 | 0 |  | 0 | 0 | 0 |  |  |  |  |  |  | 
FC(F)Sc1nc2ncccc2s1 [Example 8, 2-[(Difluoromethyl)thio]thiazolo[4,5-b]pyridine] |  | 3 | 0 | 9 | 9 | 8 | 9 |  |  | 0% | 0% |  |  | 
FC(F)=C(F)CCSc1nc2ncccc2s1 [Example 1, 2-[(4,4,3-Trifluoro-3-butenyl)thio]thiazolo[4,5-b]pyridine] | 7 | 0 | 0 | 8 | 9 | 0 | 0 |  |  | 100% | 100% | 0 (0) | 0^1 (0) | 0^1 (0)
CCOC(=O)C(C)Sc1nc2ncccc2s1 (centres unmarked) [Example 6] | 9 | 0 | 0 | 9 | 0 | 0 | 0 | 0% | 0% |  |  |  |  | 
COC(=O)CSc1nc2ncccc2s1 [Example 4] | 9 | 0 | 0 | 0 | 0 | 0 | 0 |  |  |  |  |  |  | 
FC(F)(Br)Sc1nc2ncccc2s1 [Example 7, 2-[(Bromodifluoromethyl)thio]thiazolo[4,5-b]pyridine] |  | 0 | 0 | 9 | 9 | 5 | 9 |  |  | 80% | 100% |  |  | 
